Values quoted from earlier work as cited in patent publication US11154520B2, “Combination therapy for metastatic cancer” (General Oncology, Inc., priority 2015, dated 2021).

Conditions: decomposes intravascularly within seconds to 2,3-diketogulonic acid

## O=C1O[C@H]([C@@H](O)CO)C(=O)C1=O [DHA, (5R)-5-[(1S)-1,2-dihydroxyethyl]oxolane-2,3,4-trione]
  stability in blood: unstable
